{
  "source": "patent US20220008553A1",
  "about": "“ANTI-ERBB2 ANTIBODY-DRUG CONJUGATE AND COMPOSITION THEREOF, PREPARATION METHOD THEREFOR, AND USE THEREOF” (SICHUAN KELUN-BIOTECH BIOPHARMACEUTICAL CO., LTD., priority 2015, published 2022)",
  "key": {"GA0006 tumor mass": {"system": "GA0006 tumor mass", "conditions": "15 mg/kg, single injection via tail vein, 21st day after injection", "method": "(§1) BALB/c nude mice were subcutaneously inoculated with GA0006 tumor mass to establish a subcutaneous xenograft model of human-derived gastric cancer. The administration was conducted when the average tumor volume reached 141 mm^3. […] Each group has 8 mice, and the administration was a single injection via tail vein. Tumor volume was measured on the 21st day after the single injection, and TGI was calculated. The efficacy was evaluated based on TGI, and the tolerance was evaluated based on body weight changes and death of the mice. TGI was calculated as described above in (1)."}, "[1]": {"system": "human gastric cancer cell line NCI-N87", "conditions": "mouse, in vivo", "method": "(§2) The change of tumor volume and animal weight were measured for calculation of the efficacy (tumor-inhibitory efficacy) of the antibody-drug conjugates in the tumor-bearing mice.\n(§3) After gently shaking, the mother solutions were sub-packed and stored at −80° C. Treatment solutions for use were obtained by dilution with normal saline, and a normal saline at the same concentration was used as solvent control.\n(§4) The tumor-bearing mice (models obtained in 1.2) with tumor volume of 100-200 mm^3 were randomly assigned (the number of samples in each group was determined according to sample quantity), 7 mice per group. The dosage was 10 ml/kg. The route of administration was single intravenous injection in caudal vein. After administration, the tumor diameter was measured with vernier caliper twice a week for an observation period of 8 weeks, and the tumor volume was calculated according to the following equation: V=0.5 a^2×b, wherein a and b represent the […] of the tumor, respectively. Animal deaths were observed and recorded daily.\n(§5) The tumor growth inhibition TGI (%) was calculated with the following equation for evaluating the antitumor efficacy of the antibody-drug conjugates: […]"}, "[2]": {"system": "breast cancer cell line BT474", "conditions": "mouse, in vivo", "method": "as §2, §3, §4, §5"}, "[3]": {"system": "ovarian cancer cell line SK-OV-3", "conditions": "mouse, in vivo", "method": "as §2, §3, §4, §5"}, "BR0438 tumor mass": {"system": "BR0438 tumor mass", "conditions": "15 mg/kg, single injection via tail vein, 21st day after injection", "method": "as §1, with “NOD/SCID” for “BALB/c nude”, “BR0438” for “GA0006”, “breast” for “gastric”, “173” for “141”"}, "Calu-3 cells": {"system": "Calu-3 cells", "conditions": "1 mg/kg, single injection via tail vein, 31st day after injection", "method": "as §1, with “Nude” for “nude”, “Calu-3 cells” for “GA0006 tumor mass”, “lung adenocarcinoma.” for “gastric cancer. The administration was conducted when the average tumor volume reached 141 mm^3.”, “31st” for “21st”, “injection (36th day after inoculation of Calu-3 cells),” for “injection,”"}, "BT-474 cells": {"system": "BT-474 cells", "conditions": "3 mg/kg, single injection via tail vein, 31st day after injection", "description": "NOD/SCID mice were orthotopically inoculated with BT-474 cells to establish an orthotopic xenograft model of human-derived breast cancer. […] Each group has 10 mice, and the administration was a single injection via tail vein. Tumor volume was measured on the 31st day after the single injection (i.e., 39th day after inoculation of BT-474 cells), and TGI was calculated. The efficacy was evaluated based on TGI.\nwherein VTe: Average tumor volume of treatment group at the end of observation • VTs: Average tumor volume of treatment group at the administration • VCe: Average tumor volume of control group at the end of observation • VCs: Average tumor volume of control group at the administration"}, "JIMT-1 cells": {"system": "JIMT-1 cells", "conditions": "3 mg/kg, single injection via tail vein, 31st day after injection", "method": "as §1, with “NOD/SCID” for “BALB/c nude”, “JIMT-1 cells” for “GA0006 tumor mass”, “breast” for “gastric”, “cancer.” for “cancer. The administration was conducted when the average tumor volume reached 141 mm^3.”, “31st” for “21st”, “injection (i.e., 43rd day after inoculation of JIMT-1 cells),” for “injection,”"}, "MDA-MB-468 (HER2−)": {"system": "MDA-MB-468 (HER2−)", "conditions": "1 h incubation, FACS", "method": "(§6) The fluorescent intensity of cell surface binding was measured with FACS to determine the affinity of the drugs to the above cells."}, "JIMT-1 (HER2+)": {"system": "JIMT-1 (HER2+)", "conditions": "1 h incubation, FACS", "method": "as §6"}, "BT-474 (HER2+++)": {"system": "BT-474 (HER2+++)", "conditions": "1 h incubation, FACS", "method": "as §6"}},
  "data": [
    {"substance": "T-DM1", "values": [
      {"measurement": "TGI (%)", "setting": "GA0006 tumor mass", "value": 86.97, "unit": "%"},
      {"measurement": "final tumor volume (mm^3)", "setting": "[1]", "value": 774.76, "unit": "mm^3"},
      {"measurement": "TGI (%)", "setting": "[2]", "value": 54.80, "unit": "%"},
      {"measurement": "TGI (%)", "setting": "[3]", "value": "−11.04", "unit": "%"},
      {"measurement": "TGI (%)", "setting": "BR0438 tumor mass", "value": 3.65, "unit": "%"},
      {"measurement": "TGI (%)", "setting": "Calu-3 cells", "value": 64, "unit": "%"},
      {"measurement": "TGI (%)", "setting": "BT-474 cells", "value": 43, "unit": "%"},
      {"measurement": "TGI (%)", "setting": "JIMT-1 cells", "value": 28, "unit": "%"},
      {"measurement": "affinity (EC50) (ng/ml)", "setting": "MDA-MB-468 (HER2−)", "value": "No binding"},
      {"measurement": "affinity (EC50)", "setting": "JIMT-1 (HER2+)", "value": 0.5105, "unit": "µg/mL"},
      {"measurement": "affinity (EC50)", "setting": "BT-474 (HER2+++)", "value": 2.419, "unit": "µg/mL"}
    ]}
  ]
}
